# Test results from ChEMBL document CHEMBL5034015, “Structure-Based Optimization of 3-Phenyl-N-(2-(3-phenylureido)ethyl)thiophene-2-sulfonamide Derivatives as Selective Mcl-1 Inhibitors” (J Med Chem, 2021).
# Calls of active or inactive are those of the source. Unless noted, the calls are words filed in the database; no cut-off is given here.
# Legend:
# [1] = system: RS4-11; experiment: cells; details: Homo sapiens, RS4-11, 48 h
# Description: Cytotoxicity against human RS4-11 cells assessed as inhibition of cell growth incubated for 48 hrs by CCK8 assay
# [2] = target: T1, Apoptosis regulator Bcl-2 (Homo sapiens, UniProt P10415); experiment: Binding affinity to full length human Bcl-2 expressed in Escherichia coli BL21 (DE3) assessed as inhibition constant preincubated for 30 mins followed by 5-FAM-QEDIIIINIARHLAQVGDSMD-RSIPPG tracer addition and measured after 20 mins by fluorescence polarization assay
# [3] = system: HEK-293T; experiment: Cytotoxicity against HEK293T cells assessed as reduction in cell viability incubated for 48 hrs by CCK8 assay; details: Homo sapiens
# [4] = target: T2, Induced myeloid leukemia cell differentiation protein Mcl-1 (Homo sapiens, UniProt Q07820); experiment: Binding affinity to full length human MCL1 expressed in Escherichia coli BL21 (DE3) assessed as inhibition constant preincubated for 30 mins followed by 5-FAM-QEDIIIINIARHLAQVGDSMD-RSIPPG tracer addition and measured after 20 mins by fluorescence polarization assay
# [5] = target: T3, Bcl-2-like protein 1 (Homo sapiens, UniProt Q07817); experiment: Binding affinity to full length human Bcl-xl expressed in Escherichia coli BL21 (DE3) at up to 100 uM preincubated for 30 mins followed by 5-FAM-QEDIIIINIARHLAQVGDSMD-RSIPPG tracer addition and measured after 20 mins by fluorescence polarization assay; details: dose microM <=100, time 50.0 min
# [6] = system: HeLa; experiment: cells; details: Homo sapiens, 48 h
# Description: Cytotoxicity against human HeLa cells assessed as inhibition of cell growth incubated for 48 hrs by CCK8 assay
# [7] = system: HL-60; experiment: cells; details: Homo sapiens, HL-60, 48 h
# Description: Cytotoxicity against human HL-60 cells assessed as inhibition of cell growth incubated for 48 hrs by CCK8 assay
# [8] = target: T1, Apoptosis regulator Bcl-2; experiment: Binding affinity to full length human Bcl-2 expressed in Escherichia coli BL21 (DE3) at up to 100 uM preincubated for 30 mins followed by 5-FAM-QEDIIIINIARHLAQVGDSMD-RSIPPG tracer addition and measured after 20 mins by fluorescence polarization assay; details: dose microM <=100, time 50.0 min
# [9] = target: T2, Induced myeloid leukemia cell differentiation protein Mcl-1; experiment: Binding affinity to 15N-labeled human MCL1 (172 to 327 residues) expressed in Escherichia coli BL21 (DE3) assessed as chemical shift at R263 residue at 0.3 mM incubated for 1 hr by 15N HSQC NMR spectroscopy analysis
# [10] = target: T2, Induced myeloid leukemia cell differentiation protein Mcl-1; experiment: Binding affinity to 15N-labeled human MCL1 (172 to 327 residues) expressed in Escherichia coli BL21 (DE3) assessed as chemical shift at F228 residue at 0.3 mM incubated for 1 hr by 15N HSQC NMR spectroscopy analysis
# [11] = target: T2, Induced myeloid leukemia cell differentiation protein Mcl-1; experiment: Binding affinity to 15N-labeled human MCL1 (172 to 327 residues) expressed in Escherichia coli BL21 (DE3) assessed as chemical shift at M250 residue at 0.3 mM incubated for 1 hr by 15N HSQC NMR spectroscopy analysis
# [12] = target: T2, Induced myeloid leukemia cell differentiation protein Mcl-1; experiment: Binding affinity to 15N-labeled human MCL1 (172 to 327 residues) expressed in Escherichia coli BL21 (DE3) assessed as chemical shift at L235 residue at 0.3 mM incubated for 1 hr by 15N HSQC NMR spectroscopy analysis
# [13] = target: T2, Induced myeloid leukemia cell differentiation protein Mcl-1; experiment: Binding affinity to 15N-labeled human MCL1 (172 to 327 residues) expressed in Escherichia coli BL21 (DE3) assessed as chemical shift at M231 residue at 0.3 mM incubated for 1 hr by 15N HSQC NMR spectroscopy analysis
# [14] = target: T2, Induced myeloid leukemia cell differentiation protein Mcl-1; experiment: Binding affinity to 15N-labeled human MCL1 (172 to 327 residues) expressed in Escherichia coli BL21 (DE3) assessed as chemical shift at H224 residue at 0.3 mM incubated for 1 hr by 15N HSQC NMR spectroscopy analysis
# [15] = target: T3, Bcl-2-like protein 1; experiment: Binding affinity to full length human Bcl-xl expressed in Escherichia coli BL21 (DE3) assessed as inhibition constant preincubated for 30 mins followed by 5-FAM-QEDIIIINIARHLAQVGDSMD-RSIPPG tracer addition and measured after 20 mins by fluorescence polarization assay
# [16] = Cytotoxicity against HEK293T cells assessed as cell viability at 20 uM incubated for 48 hrs by CCK8 assay relative to control; type: cell-based, HEK-293T; details: human, read-out: Activity
# [17] = target: T2, Induced myeloid leukemia cell differentiation protein Mcl-1; experiment: Binding affinity to full length human MCL1 expressed in Escherichia coli BL21 (DE3) at up to 100 uM preincubated for 30 mins followed by 5-FAM-QEDIIIINIARHLAQVGDSMD-RSIPPG tracer addition and measured after 20 mins by fluorescence polarization assay; details: dose microM <=100, time 50.0 min
# [18] = system: HeLa; experiment: Cytotoxicity against human HeLa cells assessed as cell viability at 20 uM incubated for 48 hrs by CCK8 assay relative to control; type: functional; details: read-out: Activity
# [19] = target: T1, Apoptosis regulator Bcl-2; experiment: Binding affinity to full length human Bcl-2 expressed in Escherichia coli BL21 (DE3) at 100 uM preincubated for 30 mins followed by 5-FAM-QEDIIIINIARHLAQVGDSMD-RSIPPG tracer addition and measured after 20 mins by fluorescence polarization assay relative to control; details: time 50.0 min
# [20] = target: T3, Bcl-2-like protein 1; experiment: Binding affinity to full length human Bcl-xl expressed in Escherichia coli BL21 (DE3) at 100 uM preincubated for 30 mins followed by 5-FAM-QEDIIIINIARHLAQVGDSMD-RSIPPG tracer addition and measured after 20 mins by fluorescence polarization assay relative to control; details: time 50.0 min
# [21] = target: T2, Induced myeloid leukemia cell differentiation protein Mcl-1; experiment: Binding affinity to full length human MCL1 expressed in Escherichia coli BL21 (DE3) at 100 uM preincubated for 30 mins followed by 5-FAM-QEDIIIINIARHLAQVGDSMD-RSIPPG tracer addition and measured after 20 mins by fluorescence polarization assay relative to control; details: time 50.0 min
# T3 sequence (Q07817 whole entry): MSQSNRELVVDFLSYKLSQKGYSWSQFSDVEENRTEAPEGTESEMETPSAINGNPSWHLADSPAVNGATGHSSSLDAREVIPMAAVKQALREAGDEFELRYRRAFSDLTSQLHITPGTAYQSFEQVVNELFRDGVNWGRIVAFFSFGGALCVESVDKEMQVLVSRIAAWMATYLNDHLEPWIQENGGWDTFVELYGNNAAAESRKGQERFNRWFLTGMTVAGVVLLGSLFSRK
# T2 sequence (Q07820 whole entry): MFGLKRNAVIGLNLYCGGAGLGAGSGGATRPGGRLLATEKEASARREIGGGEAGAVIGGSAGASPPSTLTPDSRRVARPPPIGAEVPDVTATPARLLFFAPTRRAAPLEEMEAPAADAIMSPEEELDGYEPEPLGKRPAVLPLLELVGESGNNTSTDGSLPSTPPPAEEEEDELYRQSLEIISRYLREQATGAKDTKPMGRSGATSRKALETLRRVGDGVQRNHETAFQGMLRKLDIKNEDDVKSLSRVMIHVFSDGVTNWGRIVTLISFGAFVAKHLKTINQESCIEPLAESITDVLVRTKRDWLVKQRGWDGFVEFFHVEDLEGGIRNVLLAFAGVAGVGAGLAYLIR
# T1 sequence (P10415 whole entry): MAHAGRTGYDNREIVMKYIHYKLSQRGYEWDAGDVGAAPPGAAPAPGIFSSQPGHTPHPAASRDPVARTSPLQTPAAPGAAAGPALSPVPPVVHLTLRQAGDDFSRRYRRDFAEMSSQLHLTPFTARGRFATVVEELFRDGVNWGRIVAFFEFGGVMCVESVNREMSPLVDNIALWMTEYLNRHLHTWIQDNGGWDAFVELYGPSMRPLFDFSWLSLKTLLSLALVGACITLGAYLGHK
Structure (SMILES),IC50 [1] [µM],Ki [2] [µM],IC50 [3] [µM],Ki [4] [nM],Activity [5],IC50 [6] [µM],IC50 [7] [µM],Ki [15] [nM],further results
O=C(NCCNS(=O)(=O)c1sccc1-c1ccccc1Oc1ccc(O)c(O)c1)Nc1cc(Cl)cc(Cl)c1,6.2,4.6,10.7,1400,inactive,> 50,6.9,–,–
Cc1nn(C)c(COc2ccc(N3CCN(S(=O)(=O)N(C)C)CC3)cc2)c1-c1cccc2c(CCCOc3cccc4ccccc34)c(C(=O)O)n(CCN3CCOCC3)c12,7.31,–,> 20,< 1,inactive,> 20,2.46,–,Activity [8]: inactive; Activity [9]: Active; Activity [10]: Active; Activity [11]: Active; Activity [12]: Active; Activity [13]: Active; Activity [14]: Active
O=S(=O)(NCCNC(=S)Nc1cc(C(F)(F)F)cc(C(F)(F)F)c1)c1ccc(-c2ccccc2Oc2ccc(O)c(O)c2)s1,10.3,2.6,12.3,370,–,> 20,18.3,930,–
CC(C)c1ccc(Oc2ccc(O)c(O)c2)c(-c2ccsc2S(=O)(=O)NCCNC(=S)Nc2cc(C(F)(F)F)cc(C(F)(F)F)c2)c1,3.7,2.4,18.1,2100,–,> 20,8.2,4900,Activity [9]: Active; Activity [10]: Active; Activity [11]: Active; Activity [12]: Active; Activity [13]: Active; Activity [14]: Active
O=C(NCCNS(=O)(=O)c1cc(-c2ccccc2Oc2ccc(O)c(O)c2)cs1)Nc1cc(Cl)cc(Cl)c1,> 50,8.4,> 20,770,–,> 50,> 20,1700,–
Cc1ccc(-c2ccsc2S(=O)(=O)NCCNC(=O)Nc2cc(Cl)cc(Cl)c2)c(Oc2ccc(O)c(O)c2)c1,5.1,2.9,6.7,590,inactive,6.5,3.5,–,–
O=C(NCCNS(=O)(=O)c1ccc(-c2ccccc2OCc2ccccc2)s1)Nc1cc(Cl)cc(Cl)c1,> 20,–,–,–,inactive,> 20,11.7,–,"viability at 48 h, 20 µM [16]: 41%; Activity [17]: inactive; Activity [8]: inactive"
O=C(NCCNS(=O)(=O)c1ccc(-c2ccccc2O[C@H]2CC[C@H](O)CC2)s1)Nc1cc(C(F)(F)F)cc(C(F)(F)F)c1,10.1,–,–,–,inactive,> 20,7.1,–,"viability at 48 h, 20 µM [16]: 50%; Activity [17]: inactive; Activity [8]: inactive"
Cc1ccc(-c2ccsc2S(=O)(=O)NCCNC(=S)Nc2cccc([N+](=O)[O-])c2)c(Oc2ccc(O)c(O)c2)c1,6.1,–,7.9,7500,inactive,–,3.4,–,Activity [8]: inactive; viability at 20 µM [18]: 40%
O=C(NCCNS(=O)(=O)c1sccc1-c1ccccc1Oc1ccc(O)c(O)c1)Nc1cc(C(F)(F)F)cc(C(F)(F)F)c1,4.9,17,8.9,2100,inactive,> 50,5.7,–,–
O=[N+]([O-])c1ccc(Oc2ccc(O)c(O)c2)c(-c2ccsc2S(=O)(=O)N2CCN(C(=S)Nc3cc(C(F)(F)F)cc(C(F)(F)F)c3)CC2)c1,9.5,–,> 20,–,–,> 20,8.4,–,Activity [9]: Active; Activity [10]: Active; Activity [11]: Active; Activity [12]: Active; inhibition [19]: 12%; inhibition [20]: 14%; Activity [13]: Active; inhibition [21]: 52%; Activity [14]: Active
O=C(NCCNS(=O)(=O)c1ccc(-c2ccccc2Oc2ccc(O)c(O)c2)s1)Nc1cc(Cl)cc(Cl)c1,4.5,3.6,12.4,940,–,> 20,10.4,1700,–
Cc1ccc(-c2ccsc2S(=O)(=O)NCCNC(=O)Nc2ccc([N+](=O)[O-])cc2)c(Oc2ccc(O)c(O)c2)c1,7.7,13,–,7100,inactive,> 20,3.9,–,"viability at 48 h, 20 µM [16]: 48%"
O=S(=O)(NCCNC(=S)Nc1cc(C(F)(F)F)cc(C(F)(F)F)c1)c1sccc1-c1ccccc1Oc1ccc(O)c(O)c1,4.8,5.6,7.5,840,inactive,> 50,4.3,–,–
O=[N+]([O-])c1ccc(NC(=S)NCCNS(=O)(=O)c2ccc(-c3ccccc3OCc3cccc(O)c3)s2)cc1,10.1,–,> 20,–,inactive,–,10.8,–,Activity [17]: inactive; Activity [8]: inactive; viability at 20 µM [18]: 28%
O=[N+]([O-])c1ccc(NC(=S)N2CCN(S(=O)(=O)c3sccc3-c3ccccc3Oc3ccc(O)c(O)c3)CC2)cc1,9,–,> 20,–,–,–,5.3,–,inhibition [19]: 31%; inhibition [20]: 28%; inhibition [21]: 81%; viability at 20 µM [18]: 49%
O=S(=O)(NCCNC(=S)Nc1cc(C(F)(F)F)cc(C(F)(F)F)c1)c1cc(-c2ccccc2Oc2ccc(O)c(O)c2)cs1,4.5,4.6,> 20,320,–,> 20,0.6,1000,–
O=C(NCCNS(=O)(=O)c1cc(-c2ccccc2Oc2ccc(O)c(O)c2)cs1)Nc1cc(C(F)(F)F)cc(C(F)(F)F)c1,3.9,5.2,> 50,510,–,> 20,1.3,1700,–
O=C(NCCNS(=O)(=O)c1ccc(-c2ccccc2Oc2ccc(O)c(O)c2)s1)Nc1cc(C(F)(F)F)cc(C(F)(F)F)c1,4.9,3.9,17.1,420,–,> 20,10.5,1500,–
COc1ccc(Oc2ccccc2-c2ccsc2S(=O)(=O)N2CCN(C(=O)Nc3cc(C(F)(F)F)cc(C(F)(F)F)c3)CC2)cc1OC,> 50,–,> 20,–,–,> 50,> 20,–,inhibition [19]: 23%; inhibition [20]: 24%; inhibition [21]: 44%
